According to PMC9146984, “A Novel Proline-Rich Cathelicidin from the Alpaca Vicugna pacos with Potency to Combat Antibiotic-Resistant Bacteria: Mechanism of Action and the Functional Role of the C-Terminal Region” (Membranes, 2022):
Converted amounts (≈) assume the structure as drawn. Read-outs that look alike come from different tables or passages of the source. Where a SMILES comes first, the peptide text is derived from it.

Key:
E. coli ML-35p = test: Antimicrobial assay (MIC); assay type: cell-based, Escherichia coli; details: Mueller-Hinton broth supplemented with 0.9% NaCl
Procedure: (§1) The reduction of resazurin to resorufin was measured.

E. coli CI 214 = test: Antimicrobial assay (MIC); assay type: cell-based, Escherichia coli; details: Mueller-Hinton broth supplemented with 0.9% NaCl
Procedure: as §1

A. baumannii XDR CI 2675 = test: Antimicrobial assay (MIC); assay type: cell-based; details: Mueller-Hinton broth supplemented with 0.9% NaCl
Procedure: as §1

E. cloacae XDR CI 4172 = test: Antimicrobial assay (MIC); assay type: cell-based; details: Mueller-Hinton broth supplemented with 0.9% NaCl
Procedure: as §1

P. mirabilis XDR CI 3423 = test: Antimicrobial assay (MIC); assay type: cell-based; details: Mueller-Hinton broth supplemented with 0.9% NaCl
Procedure: as §1

[1] = tested on: Mycobacterium phlei Ac-1291; test: Antimicrobial assay (MIC); assay type: cell-based; details: Mueller-Hinton broth supplemented with 0.9% NaCl
Procedure: as §1

[2] = tested on: B. licheniformis VKM B511; test: Antimicrobial assay (MIC); assay type: cell-based; details: Mueller-Hinton broth supplemented with 0.9% NaCl
Procedure: as §1

[3] = tested on: K. pneumoniae ATCC 700603; test: Antimicrobial assay (MIC); assay type: cell-based; details: Mueller-Hinton broth supplemented with 0.9% NaCl
Procedure: as §1

E. coli MDR 1057 = details: MH broth with 0.9% NaCl, 14 passages with the same agent (VicBac[1–22]: after 10 passages)
Procedure: Resistance induction experiments were performed using the previously described method. Briefly, on day one, the overnight culture of wild-type bacteria was diluted with the 2× MH broth supplemented with 1.8% NaCl to reach a final cell concentration of 10^6 CFU/mL. 50 µL of the obtained bacterial suspension were added to aliquots of 50 µL of the peptide solutions serially diluted with the sterilized 0.1% BSA in 96-well flat-bottom polystyrene microplates. After incubation for 20 ± 2 h at 37 °C and 950 rpm, MICs were determined as described above. For each subsequent daily transfer, 2–4 μL of the inoculum taken from the first well containing a sub-inhibitory drug concentration were diluted with 2 mL of the fresh 2× MH broth supplemented with 1.8% NaCl. […] Bacteria that grew at the highest concentration of AMPs on the final day were passaged a further 3 times on drug-free agar plates before determining the final MIC value.

[4] = tested on: panel of reference bacterial pathogens and antibiotic-resistant clinical isolates; details: Mueller–Hinton broth supplemented with 0.9% NaCl
E. coli MDR CI 1057 = tested on: E. coli MDR CI 1057
Procedure: (§2) Bacterial test cultures were grown in the Mueller-Hinton broth (MH; Sigma, St. Louis, MO, USA) at 37 °C to mid-log phase and then diluted with the 2× MH medium supplemented with 1.8% NaCl or without salt so that to reach a final cell concentration of 10^6 CFU/mL. 50 µL of the obtained bacterial suspension were added to aliquots of 50 µL of the peptide solutions serially diluted with sterilized 0.1% bovine serum albumin (BSA) in 96-well flat-bottom polystyrene microplates (Eppendorf #0030730011, Hamburg, Germany). […] To verify MIC values, the respiratory activity of the bacteria was determined. Briefly, 20 µL of 0.1 mg/mL resazurin (a redox indicator; Sigma, St. Louis, MO, USA) was added to the wells after 24 h of incubation, and the plate was incubated for an additional two hours. The reduction of resazurin to resorufin was measured. […] The results were expressed as the median values determined based on at least three independent experiments performed in triplicate.
(§3) Resistance induction experiments were performed using the previously described method. Briefly, on day one, the overnight culture of wild-type bacteria was diluted with the 2× MH broth supplemented with 1.8% NaCl to reach a final cell concentration of 10^6 CFU/mL. 50 µL of the obtained bacterial suspension were added to aliquots of 50 µL of the peptide solutions serially diluted with the sterilized 0.1% BSA in 96-well flat-bottom polystyrene microplates. After incubation for 20 ± 2 h at 37 °C and 950 rpm, MICs were determined as described above. For each subsequent daily transfer, 2–4 μL of the inoculum taken from the first well containing a sub-inhibitory drug concentration were diluted with 2 mL of the fresh 2× MH broth supplemented with 1.8% NaCl. […] 14 repeated passages in the presence of antimicrobial agents were made for each bacterial strain during the experiment. Bacteria that grew at the highest concentration of AMPs on the final day were passaged a further 3 times on drug-free agar plates before determining the final MIC value.

[5] = tested on: VicBac[1–22]-resistant E. coli MDR 1057 strain; details: Mueller-Hinton broth supplemented with 0.9% NaCl; strain selected 14 days with VicBac[1-22]; cross-resistance
Procedure: as §2, §3

P. aeruginosa PAO1 = test: Antimicrobial assay (MIC); assay type: cell-based, Pseudomonas aeruginosa; details: Mueller-Hinton broth supplemented with 0.9% NaCl
Procedure: as §1

P. aeruginosa ATCC 27853 = test: Antimicrobial assay (MIC); assay type: cell-based, Pseudomonas aeruginosa; details: Mueller-Hinton broth supplemented with 0.9% NaCl
Procedure: as §1

E. coli BW25113 ΔmdtM = assay type: cell-based, Escherichia coli; details: Mueller–Hinton broth, 24 h, 37 °C, median
Procedure: as §1

E. coli BW25113 ΔompF = assay type: cell-based, Escherichia coli; details: Mueller–Hinton broth, 24 h, 37 °C, median
Procedure: as §1

E. coli BW25113 = assay type: cell-based, Escherichia coli; details: BW25113, 24 h
Procedure: as §1

E. coli BW25113 ΔsbmA = assay type: cell-based, Escherichia coli; details: for Minimum inhibitory concentration, E. coli strain ΔsbmA: Mueller–Hinton broth, 24 h, 37 °C, median
Procedure: as §1

B. subtilis B-886 = test: Antimicrobial assay (MIC); assay type: cell-based, Bacillus subtilis; details: Mueller-Hinton broth supplemented with 0.9% NaCl
Procedure: as §1

## CC[C@H](C)[C@H](NC(=O)[C@H](CCCNC(=N)N)NC(=O)[C@@H](N)CCCNC(=N)N)C(=O)N[C@@H](CCCNC(=N)N)C(=O)N[C@@H](CCCNC(=N)N)C(=O)N1CCC[C@H]1C(=O)N[C@@H](CCCNC(=N)N)C(=O)N[C@@H](CC(C)C)C(=O)N1CCC[C@H]1C(=O)N[C@@H](CCCNC(=N)N)C(=O)N1CCC[C@H]1C(=O)N[C@@H](CCCNC(=N)N)C(=O)N[C@H](C(=O)N1CCC[C@H]1C(=O)N[C@@H](CCCNC(=N)N)C(=O)N1CCC[C@H]1C(=O)N[C@@H](CCCNC(=N)N)C(=O)N[C@H](C(=O)N1CCC[C@H]1C(=O)N1CCC[C@H]1C(=O)N[C@@H](CCCNC(=N)N)C(=O)N[C@H](C(=O)N1CCC[C@H]1C(=O)N[C@@H](CCCNC(=N)N)C(=O)N1CCC[C@H]1C(=O)N[C@H](C(=O)N[C@@H](CC(C)C)C(=O)N1CCC[C@H]1C(=O)N1CCC[C@H]1C(=O)N1CCC[C@H]1C(=O)N[C@@H](CCCNC(=N)N)C(=O)N[C@H](C(=O)N1CCC[C@H]1C(=O)N[C@@H](Cc1ccccc1)C(=O)N1CCC[C@H]1C(=O)N[C@@H](CCCNC(=N)N)C(=O)N[C@@H](Cc1ccccc1)C(=O)N1CCC[C@H]1C(=O)N[C@@H](CCCNC(=N)N)C(N)=O)C(C)C)C(C)C)[C@@H](C)CC)[C@@H](C)CC)C(C)C [VicBac[1-39]] (H-RRIRRPRLPRPRVPRPRIPPRIPRPVLPPPRVPFPRFPR-NH2; N-terminus assumed)
E. coli ML-35p
  MIC, E. coli ML-35p: 0.5 µM (≈ 2.41 µg/mL)
E. coli CI 214
  MIC, E. coli CI 214: 8 µM (≈ 38.5 µg/mL)
A. baumannii XDR CI 2675
  MIC, A. baumannii XDR CI 2675: 8 µM (≈ 38.5 µg/mL)
E. cloacae XDR CI 4172
  MIC, E. cloacae XDR CI 4172: 4 µM (≈ 19.3 µg/mL)
P. mirabilis XDR CI 3423
  MIC, P. mirabilis XDR CI 3423: 8 µM (≈ 38.5 µg/mL)
[1]
  MIC, Mycobacterium phlei Ac-1291: 0.5 µM (≈ 2.41 µg/mL)
[2]
  MIC, B. licheniformis VKM B511: 1 µM (≈ 4.82 µg/mL)
[3]
  MIC, K. pneumoniae ATCC 700603: 2 µM (≈ 9.64 µg/mL)
E. coli MDR 1057
  increase in MIC value after serial passage selection: did not change
[4]
  MIC values, in most cases, against panel of reference pathogens and clinical isolates: 0.25 to 8 µM
E. coli MDR CI 1057; Mueller-Hinton broth supplemented with 0.9% NaCl (Figure 3A)
  MIC, E. coli MDR CI 1057: 1 µM (≈ 4.82 µg/mL)
E. coli MDR CI 1057; Mueller-Hinton broth supplemented with 0.9% NaCl, after 14 passages without antimicrobial agents
  Minimum inhibitory concentration E.coli MDR 1057 14 days w/o AMP: 1 µM (≈ 4.82 µg/mL)
E. coli MDR CI 1057; Mueller-Hinton broth supplemented with 0.9% NaCl, before passages
  Minimum inhibitory concentration E.coli MDR 1057 0 days: 1 µM (≈ 4.82 µg/mL)
[5]
  Minimum inhibitory concentration E.coli MDR 1057 14 days with VicBac [1-22]: 2 µM
P. aeruginosa PAO1
  MIC, P. aeruginosa PAO1: 8 µM (≈ 38.5 µg/mL)
P. aeruginosa ATCC 27853
  MIC, P. aeruginosa ATCC 27853: 4 µM (≈ 19.3 µg/mL)
E. coli BW25113 ΔmdtM; 0.9% NaCl: +
  Minimum inhibitory concentration, E. coli strain ΔmdtM: 1 µM (≈ 4.82 µg/mL)
E. coli BW25113 ΔmdtM; 0.9% NaCl: −
  Minimum inhibitory concentration, E. coli strain ΔmdtM: 2 µM (≈ 9.64 µg/mL)
E. coli BW25113 ΔompF; 0.9% NaCl: +
  Minimum inhibitory concentration, E. coli strain ΔompF: 1 µM (≈ 4.82 µg/mL)
E. coli BW25113 ΔompF; 0.9% NaCl: −
  Minimum inhibitory concentration, E. coli strain ΔompF: 1 µM (≈ 4.82 µg/mL)
E. coli BW25113
  Minimum inhibitory concentration, E. coli strain BW25113: 1 µM (≈ 4.82 µg/mL)
E. coli BW25113 ΔsbmA; Mueller–Hinton broth with 0.9% NaCl
  increase in MIC against ΔsbmA strain versus BW25113: 2 fold
E. coli BW25113 ΔsbmA; 0.9% NaCl: +
  Minimum inhibitory concentration, E. coli strain ΔsbmA: 2 µM (≈ 9.64 µg/mL)
E. coli BW25113 ΔsbmA; 0.9% NaCl: −
  Minimum inhibitory concentration, E. coli strain ΔsbmA: 2 µM (≈ 9.64 µg/mL)
B. subtilis B-886
  MIC, B. subtilis B-886: 16 µM (≈ 77.1 µg/mL)
